# Laboratory results: patent US20060263238A1, “Decontamination of biological microbes using quaternary ammonium surfactants at elevated temperatures” (priority 2005, published 2006)
# Legend:
# [1] = system: B. globigii spores; assay: Spore decontamination followed immediately by dilution and plating (CFU titer); assay type: cell-based, Bacillus globigii; conditions: for reduction of spores: 1% surfactant in water, >10^7 spores/ml, apparently independent of pH; for sporicidal (bacterial) activity: in the presence of moderate applied heat
# Method: In the examples, below, three representative quaternary ammonium surfactants were tested for decontamination of Bacillus spores. The three exemplified quaternary ammonium surfactants are hexadecyltrimethylammonium chloride, dicocodimethylammonium chloride, and alkyldimethylbenzylammonium chloride. All three quaternary ammonium surfactants were dissolved in water and tested over a pH range. Testing occurred with and without applied heat. All experiments were performed with at least 3-4 replicates with many experiments reproduced numerous times.
# (§1) Bacillus spores were suspended in the appropriate solvent at a concentration of 2 mg spores/ml (approximately 2×10^8 spores/ml). Starting volume of 1.125 ml of spores at 2 mg/ml. 3 or 4 spore aliquots of 50 μl per aliquot were removed. These aliquots were serially diluted in 1×PBS and plated on LB or TSA agar plates. This is a control step that gave the spore titer or colony-forming units (CFUs) at Time=0 minutes (T0). The appropriate decontamination solution (2× concentration) was aliquoted into each of 3 or 4 Eppendorf tubes with 200 ul per tube. Then 200 ul of spores were added and mixed to give a final concentration of 1× decontamination solution and 1 mg spores/ml. The spores in decontamination solution were then mixed and incubated for specific time periods and temperatures. A typical incubation was in a room temperature (25° C.) water bath for 30 (or 60) minutes. There was no agitation during the incubation period in order to mimic real world situations. Aliquots of spores were removed after 30 (or 60) minutes. The aliquots (3 or 4 replicates) were serially diluted in 1×PBS and plated on LB or TSA agar plates. This gave a CFU at Time=30 minutes (T30), which is the titer of live spores after the decontamination test. After removing the aliquots at the 30-minute time point, test (or control) samples were then immediately incubated in a 70° C. water bath for another 30 minutes. The samples were then serially diluted and plated on to LB or TSA agar plates to determine the titer after the 70° C. incubation. The entire dilution series from 0.1 through 0.000001 dilutions were plated. An optional wash assay was employed to confirm that the surfactant was killing spores rather than behaving as a bacterostatic agent. The wash assay included centrifuging and washing spores after decontamination. 100 ul of spores (after decontamination) were added to 200 ul of water and centrifuged at 10,000×g for one minute at room temperature. The supernatant was removed and saved. 10% of the supernatant volume was plated and titered as a wash control, to determine if live spores were being removed in the supernatant. Spore pellets were suspended in 1 ml of water and then pelleted at 10,000×g for one minute at room temperature. The supernatant was removed and saved. Spore pellets were washed again with 1 ml of water. Then spore pellets were suspended, serially diluted and plated. This removed the surfactant prior to plating and confirmed results that were bactericidal rather than bacterostatic.
# [2] = system: B. globigii spores; assay: Optional wash assay (surfactant removed by centrifuging and washing spores before plating); assay type: cell-based, Bacillus globigii; conditions: between pH5 and pH7 at 70° C.; for reduction of spore decontamination (wash assay): data not shown
# Method: as §1
# An optional wash assay was employed to verify the results (data not shown). […]
# [3] = 30 minutes at 25° C. (room temperature)
Compound,"reduction of spores [1, 3]","reduction of spores ([1]; 30 minutes at 70° C., complete)",sporicidal (bacterial) activity [1],spores alive out of the original 10-100 million spores (wash assay) [2],reduction of spore decontamination (wash assay) [2]
CCCCCCCCCCCCCCCC[N+](C)(C)C.[Cl-] [hexadecyltrimethylammonium chloride],approximately 1 order-of-magnitude,greater than 7 orders-of-magnitude,strong sporicidal (bacterial) activity,less than 10 thousand,over 4 orders-of-magnitude
alkyldimethylbenzylammonium chloride,approximately 1 order-of-magnitude,greater than 7 orders-of-magnitude,strong sporicidal (bacterial) activity,–,–
dicocodimethylammonium chloride,approximately 1 order-of-magnitude,greater than 7 orders-of-magnitude,strong sporicidal (bacterial) activity,less than 10 thousand,over 4 orders-of-magnitude
